The values below come from patent US8158621B2, “Methods of treating or preventing autoimmune diseases with 2,4-pyrimidinediamine compounds” (Rigel Pharmaceuticals, Inc., priority 2002, dated 2012).

One assay relates to Human Jurkat T-cells (clone N). The assay is described as follows: Jurkat T-cell activation (anti-TCR, CD69 upregulation). It counts as cell-based.
Conditions: not given
On the procedure: The screening process took place over three days.
On the first day of the screen, cultured cells were spun down on a centrifuge (1000 rpm, 5 minutes) and resuspended at 3.0×10^5 cells/ml in RPMI+5% FBS. On the second day of the screen, cells were spun down at 1000 rpm for 5 minutes and resuspended in RPMI+5% FBS at 1.3×10^5 cells/ml. 85 μl of this cell suspension were added to the wells of U-bottom 96 well plates (Corning) 85 μl of compound or diluted RPMI+5% FBS (as a control) only was added to each well and incubated at 37° C. for 1 hour. The cells were then stimulated with anti-TCR (C305) at: 500 ng/ml by adding a 8× solution in 25 μl to the plated cells. The cells were then incubated at 37° C. for 20 hrs.
On the third day of the screen, the plates were spun at 2500 RPM for 1 minute on a Beckman GS-6R centrifuge, and the medium was then removed. 50 μl staining solution (1:100 dilution of anti-CD69-APC antibody (Becton Dickenson) in PBS+2% FBS) was then added to each well, followed by incubation of the plates 4 degrees for 20 minutes in the dark. 150 μl of wash buffer (PBS+2% FBS) was then added to each well, and the plates were spun at 3000 RPM for 1 minute. The supernatant was again removed, and the pellet was resuspended by vortexing gently. 75 μl of PBS+2% FBS +Cytofix (1:4 dilution) was then added, the plates gently vortexed and wrap in aluminum foil. Cells from the plates were read using a flow cytometer coupled to an automated liquid handling system.
Varied concentrations of compound were compared to solvent only to determine the inhibition of T-cell activation IC50 of each compound.
One may read the IC50 as the concentration at which inhibition is half-maximal. A high value points to weaker potency. In the case of `CC(=O)N(C(C)=O)c1cccc(N(C(C)=O)c2ncc(F)c(N(C(C)=O)c3cccc(N(C(C)=O)C(C)=O)c3)n2)c1` [Compound R950247], the IC50 is over 10 µM. Still for that read-out and setting: the value for `O=C(O)c1cnc(Nc2cccc(O)c2)nc1NC(C(=O)O)c1ccccc1` (stereo not shown) [Compound R926535] was over 10 µM; that for `CCOC(=O)COc1cccc(Nc2ncc(F)c(Nc3cc(Cl)c(O)c(Cl)c3)n2)c1` [Compound R950185] was over 10 µM; that for `CNC(=O)Cn1ncc2ccc(Nc3nc(Nc4ccc(OC(C)C)cc4)ncc3F)cc21` [Compound R935224] was over 10 µM. The same measure, in the same setting: the value for `N#Cc1cnc(Nc2ccc(OCC(=O)NCC(O)CO)cc2)nc1Nc1cccc(O)c1` (stereo not shown) [Compound R925846] was over 10 µM; that for `O=C(c1cc2cc(Nc3ncc(F)c(Nc4ccc5c(c4)OCCO5)n3)ccc2o1)N1CCOCC1` [Compound R926492] was 3.33 µM. Same read-out and setting: for `Cc1nc(COc2cccc(Nc3ncc(F)c(Nc4cccc(O)c4)n3)c2)no1` [Compound R945127] the value was 11.1 µM. Consider `CNC(=O)COc1cc(Nc2ncc(F)c(Nc3cccc(O)c3)n2)ccc1C` [Compound R926757], for which the IC50 was 2.74 µM.

The compound `CSc1nc2ccc(Nc3ncc(F)c(Nc4ccc5nc(SC)sc5c4)n3)cc2s1` [Compound R950202] yielded an IC50 of over 10 µM.

`CNC(=O)COc1cccc(Nc2ncc(F)c(Nc3ccc4c(c3)CNCC4)n2)c1` [Compound R926914] came in with an IC50 of over 10 µM. In the case of `CCOC(=O)c1cnc(Nc2cccc(OCC(=O)NC)c2)nc1Nc1cc(OC)cc(OC)c1` [Compound R926801], the IC50 is over 10 µM.

In the case of `O=C(COc1cccc(Nc2ncc(F)c(Nc3ccc4c(c3)OCCO4)n2)c1)NCC(O)CO` (stereo not shown) [Compound R926782], the IC50 came to 1.22 µM. Still for that read-out and setting: for `Oc1cccc(Nc2nc(Nc3ccc4oc(CN5CCNCC5)cc4c3)ncc2F)c1` [Compound R926769] the value was 2.79 µM; for `CNC(=O)COc1cc(Nc2ncc(F)c(Nc3cccc(O)c3)n2)ccc1OC` [Compound R926829], 3.1 µM.

With `COC(=O)Cn1ncc2ccc(Nc3nc(Nc4ccc(OC(C)C)cc4)ncc3F)cc21` [Compound R935218], the IC50 worked out at 22.7 µM. The compound `CNC(=O)COc1cccc(Nc2nc(Nc3ccc4c(c3)NCCO4)ncc2F)c1` [Compound R909247] showed an IC50 of 3 µM. For `NC(=O)COc1ccc(Nc2ncc(F)c(Nc3ccc(OCC(N)=O)cc3)n2)cc1` [Compound R945025], half-maximal inhibition (IC50) was put at 7.03 µM. `CNC(=O)COc1cccc(Nc2ncc(F)c(Nc3cccc(C(C)=NO)c3)n2)c1` [Compound R950373]: half-maximal inhibition (IC50) was put at 3.61 µM. The same measure, in the same setting: the value for `CNC(=O)COc1cccc(Nc2ncc(F)c(Nc3ccc(O)cc3)n2)c1` [Compound R950347] was 2.7 µM; that for `CC(C)Oc1ccc(Nc2nc(Nc3ccc4c(cnn4CCO)c3)ncc2F)cc1` [Compound R935255] was 0.668 µM; that for `CCOC(=O)C(C)(C)c1ccc(Nc2ncc(F)c(Nc3cccc(O)c3)n2)cc1` [Compound R935152] was 19.9 µM. On the same count and under the same terms, for `OCCOc1ccc(Nc2ncc(F)c(Nc3ccc4c(c3)OCCCO4)n2)cc1` [Compound R935183] the value was 2.27 µM; for `Cc1ccc(-c2ccccc2)cc1Nc1ncc(F)c(Nc2cc(-c3ccccc3)ccc2C)n1` [Compound R926402], over 10 µM. The same measure, in the same setting: for `CCOC(=O)COc1ccc(Nc2nc(Nc3ccc(OCC(=O)OCC)cc3)c(N)c(C(=O)OCC)n2)cc1` [Compound R926567] the value was over 10 µM.

`CCOC(=O)CNc1nc(Nc2ccc(OCC(=O)OCC)cc2)nc(C(=O)OCC)c1[N+](=O)[O-]` [Compound R925858] displayed an IC50 of over 10 µM. Still for that read-out and setting: the value for `Nc1cccc(Nc2nc(Nc3cccc(Nc4ncc(F)c(Nc5cccc(N)c5)n4)c3)ncc2F)c1` [Compound R950137] was 5.9 µM. Still for that read-out and setting: for `Oc1cccc(Nc2nc(Nc3ccc4oc(CN5CCNCC5)cc4c3)ncc2F)c1` [Compound R926770] the value was 0.891 µM. Regarding `Nc1cccc(Nc2nc(Nc3cccc(NC(=O)CCC(C(=O)O)N4C(=O)c5ccccc5C4=O)c3)ncc2F)c1` (racemic) [Compound R950251], the half-maximal inhibitory concentration (IC50) is over 10 µM. In the case of `CCOC(=O)COc1ccc(Nc2ncc(C#N)c(Nc3ccc(OCC(=O)OCC)cc3)n2)cc1` [Compound R925775], the IC50 was over 10 µM. Consider `O=C(CNc1cccc(Nc2ncc(F)c(Nc3ccc4c(c3)OCCO4)n2)c1)N1CCOCC1` [Compound R950193], for which the IC50 turned out to be 2.83 µM. Still for that read-out and setting: for `COC(=O)COc1ccc(Nc2ncc(F)c(Nc3ccc(OCC(=O)OC(C)(C)C)cc3)n2)cc1` [Compound R926572] the value was over 10 µM; for `Cc1noc(COc2ccc(Nc3nc(Nc4ccc5c(c4)OCCO5)ncc3F)cc2)n1` [Compound R935145], 5.34 µM.

`OCCn1ncc2cc(Nc3nc(Nc4cccc(O)c4)ncc3F)ccc21` [Compound R935259] registered an IC50 of 3.46 µM. Still for that read-out and setting: for `COc1ccc(Nc2nc(Nc3cc(C)c(O)c(Cl)c3)ncc2F)cc1CN1CCNCC1` [Compound R940318] the value was 1.39 µM; for `CNC(=O)COc1cccc(Nc2nc(Nc3ccc(OCCN(C)C)cc3)ncc2F)c1` [Compound R909253], 3.08 µM; for `Cc1cc(Nc2ncc(F)c(Nc3ccc(O)c(C)c3)n2)ccc1O` [Compound R926469], over 10 µM. The same measure, in the same setting: for `Cc1nc(COc2cccc(Nc3ncc(F)c(Nc4ccc5oc(C(N)=O)cc5c4)n3)c2)no1` [Compound R945135] the value was 4.37 µM; for `O=C(CNc1cccc(Nc2ncc(F)c(Nc3cccc(O)c3)n2)c1)N1CCOCC1` [Compound R950221], 20.3 µM.

Staying with this assay, now noted: Homo sapiens.
`CCNC(=O)Oc1cccc(Nc2ncc(F)c(Nc3cccc(O)c3)n2)c1` [Compound R926928]: the IC50 is over 10 µM.

Still in this assay, the particulars now being: Homo sapiens, Jurkat.
`Cc1cc(Nc2ncc(F)c(Nc3ccc4c(c3)OCCO4)n2)c(C)cc1O` [Compound R926792] came in with an IC50 of 9.97 µM. This counts as single-digit micromolar.

`Cc1ccc(Nc2ncc(F)c(Nc3ccc(C)cc3)n2)cc1` [Compound R926225] gave an IC50 of over 10 µM.

Consider `Oc1cccc(Nc2ncc(F)c(Nc3ccc4ncccc4c3)n2)c1` [Compound R927019], for which the IC50 is over 10 µM. `COc1cc(Nc2ncc(F)c(Nc3ccc(C(=O)O)c(OC)c3)n2)ccc1C(=O)O` [Compound R945068] displayed an IC50 of over 10 µM.

On to `Fc1cnc(Nc2ccccc2-c2ccccc2)nc1Nc1ccccc1-c1ccccc1` [Compound R926398], for which the IC50 was over 10 µM. Still for that read-out and setting: the value for `CCOC(=O)c1cc2cc(Nc3ncc(F)c(Nc4ccc(C(C)(C)C)cc4)n3)ccc2[nH]1` [Compound R926474] was 10.8 µM; that for `CCOc1ccc(Nc2ncc(F)c(Nc3ccc(OC)c(OC)c3)n2)cc1` [Compound R926145] was 17.7 µM; that for `OCCOc1ccc(Nc2ncc(F)c(Nc3ccc4oc(CO)cc4c3)n2)cc1` [Compound R935174] was 3.99 µM. `CCOC(=O)C1CCN(C(=O)c2cccc(Nc3ncc(F)c(Nc4cccc(O)c4)n3)c2)CC1` [Compound R926939] had an IC50 of over 10 µM. On the same count and under the same terms, for `Fc1cnc(Nc2ccc3c(c2)OC(F)(F)O3)nc1Nc1ccc2c(c1)OCCO2` [Compound R926386] the value was over 10 µM; for `CCCNC(=O)c1cccc(Nc2ncc(F)c(Nc3cccc(O)c3)n2)c1` [Compound R926937], over 10 µM; for `COc1ccc(Nc2nc(Nc3cccc(O)c3)ncc2F)cc1Cl` [Compound R926945], 4.24 µM. `Nc1cc(Cl)cc(Nc2ccnc(Nc3cc(N)cc(Cl)c3)n2)c1` [Compound R950133] yielded an IC50 of 4.7 µM. On the same count and under the same terms, for `CCOC(=O)c1cc2cccc(Nc3ncc(F)c(Nc4cc(OC)cc(OC)c4)n3)c2[nH]1` [Compound R926803] the value was over 10 µM. As for `COC(=O)c1cc(Nc2ncc(F)c(Nc3cccc(O)c3)n2)ccc1OC` [Compound R940301], inhibition was half-maximal at 1.31 µM (IC50). `COCCNc1ncc(F)c(Nc2ccc3c(c2)OCCO3)n1` [Compound R926229] showed an IC50 of over 10 µM. For the compound `CCOC(=O)c1nc(Nc2ccc3c(c2)OCCO3)nc(Nc2ccc3c(c2)OCCO3)c1N` [Compound R925857], the IC50 is over 10 µM. On the same count and under the same terms, for `COc1ccc(Nc2ncc(F)c(Nc3ccc4c(c3)OCCO4)n2)c(C)c1` [Compound R926845] the value was over 10 µM. `Oc1cccc(Nc2nc(Nc3ccc(-n4cnc(Cl)c4Cl)cc3)ncc2F)c1` [Compound R926777] yielded a half-maximal inhibitory concentration (IC50) of over 10 µM.

`Cc1noc(C)c1Nc1ncc(F)c(Nc2ccc3c(c2)OCCO3)n1` [Compound R926744] yielded an IC50 of over 10 µM. `COC(=O)c1cc2cc(Nc3ncc(F)c(Nc4ccc5oc(C(=O)OC)cc5c4)n3)ccc2o1` [Compound R926604]: the IC50 is over 10 µM.

`Fc1cnc(Nc2ccc3cc[nH]c3c2)nc1Nc1ccc2c(c1)OCCO2` [Compound R926750] came in with an IC50 of 0.535 µM. This counts as sub-micromolar.

Compound `O=C(O)c1cc2cc(Nc3ncc(F)c(Nc4cccc(O)c4)n3)ccc2[nH]1` [Compound R926479] displayed an IC50 of over 10 µM. For `CC(C)Oc1cccc(Nc2ncc(F)c(Nc3cccc(N)c3)n2)c1` [Compound R950164], the midpoint of inhibition, the IC50, lay at 18.2 µM. In other words, the double-digit micromolar range. For the compound `CCOC(=O)c1cccc(Nc2ncc(F)c(Nc3cccc(C(=O)OCC)c3)n2)c1` [Compound R926228], the IC50 is over 10 µM.
